Experimental data from patent US9920017B2, “Heterocyclic compounds as pesticides” (BAYER CROPSCIENCE AKTIENGESELLSCHAFT, priority 2014, dated 2018).
Like-named read-outs stand apart in the source and are kept apart here.

Test: Determination of log P values by HPLC (reversed-phase C18)
Assay type: physicochemical
Conditions: for chromatographic logP: reversed-phase C18 HPLC column
Procedure: 1) Description of Method for Determination of the Log P Values ([…]) The log P values given in the table were determined in accordance with EEC Directive 79/831 Annex V.A8 by HPLC (High Performance Liquid Chromatography) using a reversed-phase column (C 18). Temperature: 55° C. […] Gradient: from 10% eluent A/90% eluent B to 95% eluent A/5% eluent B in 4.25 min. Calibration was effected with unbranched alkan-2-ones (having 3 to 16 carbon atoms) with known log P values (log P values determined on the basis of the retention times by linear interpolation between two successive alkanones). The lambda max values were determined in the maxima of the chromatographic signals using the UV spectra from 200 nm to 400 nm.

[1] = HPLC-MS, preparation examples, read-out: log P (neutral)
[2] = N-[1-aryl-1H-1,2,4-triazol-3-yl]benzamides, formula (1-9)
[3] = HPLC, reversed-phase C18, 55° C., final compounds table
[4] = pH 3.4, HPLC-MS, preparation examples, read-out: log P
[5] = HPLC, reversed-phase C18, 55° C., final compounds table, read-out: log P neutral
[6] = compounds of formula (IIa-1), R3 hydrogen

Work on CCO/C=N/c1noc(-c2ccccc2)n1 [Ethyl [5-phenyl-1,2,4-oxadiazol-3-yl]imidoformate] yielded a chromatographic logP [1] of 2.87.

In the case of O=C(Nc1ncn(-c2ccccc2C(F)(F)F)n1)c1ccccc1 [1-9 R1=CF3 R2m=—], the “logP (neutral)” value [2] is reported as 1.91.

In the case of Cc1cccc(F)c1-n1cnc(NC(=O)c2ccccc2C(F)(F)F)n1 [Compound I-1-37], the “log P neutral” value [3] is reported as 2.19.

With O=C(Nc1ncn(-c2ccccc2Cl)n1)c1ccccc1Cl [Compound I-1-5] the “log P neutral” value [3] was 1.91.

For O=C(Nc1ncn(-c2c(F)cccc2F)n1)c1ccccc1 [N-[1-(2,6-Difluorophenyl)-1H-1,2,4-triazol-3-yl]benzamide], the chromatographic logP [1] was 1.59.

With COc1ccccc1-n1nnc(NC(=O)c2ccccc2C(F)(F)F)n1 [Compound I-2-1, N-[2-(2-Methoxyphenyl)-2H-tetrazol-5-yl]-2-(trifluoromethyl)benzamide] the chromatographic logP [4] was 2.19 and the chromatographic logP [5] was 2.19.

For Cc1cc(C)c(-n2cnc(NC(=O)c3ccccc3C(F)(F)F)n2)cc1SCC(F)(F)F [Compound I-1-98], the “log P neutral” value [3] was 3.21.

In the case of Cc1cccc(F)c1-n1cnc(N)n1 [IIa-1 R1=F R2m=6-CH3], the “logP (neutral)” value [6] is reported as 1.03.

In the case of Nc1ncn(-c2c(F)cc(F)cc2F)n1 [IIa-1 R1=F R2m=4,6-F2], the “logP (neutral)” value [6] is reported as 0.82.

With O=C(Nc1ncn(-c2c(F)cccc2Cl)n1)c1ccccc1Cl [Compound I-1-36] the “log P neutral” value [3] was 1.83.

For O=C(Nc1ncn(-c2cccc(Cl)c2Cl)n1)c1ccccc1C(F)(F)F [Compound I-1-51], the “log P neutral” value [3] was 2.49.

In the case of Nc1ncn(-c2c(Cl)cccc2Cl)n1 [IIa-1 R1=Cl R2m=6% Cl:], the “logP (neutral)” value [6] is reported as 0.94.

With O=C(Nc1ncn(-c2ccccc2I)n1)c1ccccc1 [1-9 R1=I R2m=—] the “logP (neutral)” value [2] was 1.87.

With COc1cccc(C)c1-n1cnc(NC(=O)c2ccccc2)n1 [1-9 R1=CH3 R2m=6-OCH3] the “logP (neutral)” value [2] was 1.76.

In the case of Cc1cc(C)c(S(=O)(=O)CC(F)(F)F)cc1-n1cnc(NC(=O)c2ccccc2C(F)(F)F)n1 [Compound I-1-96], the “log P neutral” value [3] is reported as 2.49.

For O=C(Nc1ncn(-c2c(F)cccc2C(F)(F)F)n1)c1ccccc1 [N-{1-[2-Fluoro-6-(trifluoromethyl)phenyl]-1H-1,2,4-triazol-3-yl}benzamide], the chromatographic logP [1] was 1.95.

In the case of O=C(Nc1nn[nH]n1)c1ccccc1C(F)(F)F [N-(2H-Tetrazol-5-yl)-2-(trifluoromethyl)benzamide], the chromatographic logP [4] is reported as 1.17.

In the case of O=C(Nc1ncn(-c2ccccc2Cl)n1)c1c(F)cccc1F [Compound I-1-6], the “log P neutral” value [3] is reported as 1.90.

With O=C(Nc1ncn(-c2c(F)c(F)c(F)c(F)c2F)n1)c1ccccc1Cl [Compound I-1-66] the “log P neutral” value [3] was 2.28.

With Cc1cccc(Cl)c1-n1cnc(N)n1 [IIa-1 R1=Cl R2m=6-CH3] the “logP (neutral)” value [6] was 1.12.

In the case of CCc1cccc(Cl)c1-n1cnc(N)n1 [IIa-1 R1=Cl R2m=6-C2H5], the “logP (neutral)” value [6] is reported as 1.12.

In the case of Nc1ncn(-c2ccc(Cl)cc2Cl)n1 [IIa-1 R1=Cl R2m=4-Cl], the “logP (neutral)” value [6] is reported as 1.48.

For Nc1ncn(-c2ccccc2Cl)n1 [IIa-1 R1=Cl R2m=—], the “logP (neutral)” value [6] was 0.96.

In the case of O=C(Nc1ncn(-c2ccccc2F)n1)c1ccccc1Cl [Compound I-1-1], the “log P neutral” value [3] is reported as 1.88.

For COc1cccc(C)c1-n1cnc(N)n1 [IIa-1 R1=CH3 R2m=6-OCH3], the “logP (neutral)” value [6] was 0.98.

In the case of O=C(Nc1ncn(-c2cc(Cl)ccc2Cl)n1)c1ccccc1Cl [Compound I-1-55], the “log P neutral” value [3] is reported as 2.34.

In the case of O=C(Nc1ncn(-c2cccc(Cl)c2Cl)n1)c1ccccc1Cl [Compound I-1-52], the “log P neutral” value [3] is reported as 2.29.

In the case of Nc1ncn(-c2c(F)ccc(F)c2F)n1 [IIa-1 R1=F R2m=3,6-F2-phenyl], the “logP (neutral)” value [6] is reported as 0.84.

In the case of Nc1noc(-c2ccccc2)n1 [5-Phenyl-1,2,4-oxadiazol-3-amine], the chromatographic logP [1] is reported as 1.28.

With O=C(Nc1ncn(-c2ccccc2OC(F)(F)F)n1)c1ccccc1Cl [Compound I-1-9] the “log P neutral” value [3] was 2.32.

With O=C(Nc1ncn(-c2cc(Cl)ccc2Cl)n1)c1ccccc1C(F)(F)F [Compound I-1-54] the “log P neutral” value [3] was 2.55.

In the case of Nc1ncn(-c2ccccc2F)n1 [IIa-1 R1=F R2m=—], the “logP (neutral)” value [6] is reported as 0.86.

In the case of COc1cccc(C)c1-n1cnc(NC(=O)c2ccccc2Cl)n1 [Compound I-1-50], the “log P neutral” value [3] is reported as 1.95.

For CCc1cccc(Cl)c1-n1cnc(NC(=O)c2ccccc2Cl)n1 [Compound I-1-43], the “log P neutral” value [3] was 2.36.

For Cc1cccc(F)c1-n1cnc(NC(=O)c2ccccc2Cl)n1 [Compound I-1-38], the “log P neutral” value [3] was 1.99.

In the case of O=C(Nc1ncn(-c2c(F)cccc2Cl)n1)c1ccccc1OC(F)(F)F [Compound I-1-34], the “log P neutral” value [3] is reported as 2.30.

For Nc1ncn(-c2c(Br)cc(F)cc2Br)n1 [IIa-1 R1=Br R2m=6-Br-4-F], the “logP (neutral)” value [6] was 1.35.

In the case of Nc1ncn(-c2c(F)cccc2F)n1 [1-(2,6-Difluorophenyl)-1H-1,2,4-triazol-3-amine], the chromatographic logP [1] is reported as 0.61.

With O=C(Nc1ncn(-c2ccccc2OC(F)(F)F)n1)c1ccccc1 [1-9 R1=OCF3 R2m=—] the “logP (neutral)” value [2] was 2.15.

In the case of O=C(Nc1ncn(-c2ccc(Cl)cc2Cl)n1)c1ccccc1 [1-9 R1=Cl R2m=4-Cl], the “logP (neutral)” value [2] is reported as 2.18.

For COc1cc(F)ccc1-n1nnc(NC(=O)c2ccccc2C(F)(F)F)n1 [Compound I-2-2, N-[2-(4-Fluoro-2-methoxyphenyl)-2H-tetrazol-5-yl]-2-(trifluoromethyl)benzamide], the chromatographic logP [4] was 2.35 and the chromatographic logP [5] was 2.35.

For O=C(Nc1ncn(-c2ccccc2Br)n1)c1ccccc1Cl [Compound I-1-71], the “log P neutral” value [3] was 1.96.

In the case of O=C(Nc1ncn(-c2ccccc2I)n1)c1ccccc1I [Compound I-1-77], the “log P neutral” value [3] is reported as 2.15.

For Nc1ncn(-c2c(F)cccc2I)n1 [IIa-1 R1=F R2m=6-I], the “logP (neutral)” value [6] was 1.07.

Work on O=C(Nc1ncn(-c2c(F)cccc2Br)n1)c1ccccc1 [N-[1-(2-Bromo-6-fluorophenyl)-1H-1,2,4-triazol-3-yl]benzamide] yielded a chromatographic logP [1] of 1.79.

With CCc1ccccc1C(=O)Nc1ncn(-c2ccccc2I)n1 [Compound I-1-78] the “log P neutral” value [3] was 2.31.

Work on O=C(Nc1ncn(-c2ncc(F)cc2F)n1)c1ccccc1 [N-[1-(3,5-Difluoropyridin-2-yl)-1H-1,2,4-triazol-3-yl]benzamide] yielded a chromatographic logP [1] of 1.36.

In the case of O=C(Nc1ncn(-c2c(F)cccc2I)n1)c1ccccc1 [1-9 R1=F R2m=6-I], the “logP (neutral)” value [2] is reported as 1.79.

Nc1ncn(-c2ncc(F)cc2F)n1 [1-(3,5-Difluoropyridin-2-yl)-1H-1,2,4-triazol-3-amine] showed a chromatographic logP [4] of 0.3.

In the case of O=C(Nc1ncn(-c2c(F)c(F)c(F)c(F)c2F)n1)c1ccccc1 [1-9 R1=F R2m=3,4,5,6-F4], the “logP (neutral)” value [2] is reported as 2.11.

For O=C(Nc1ncn(-c2c(F)cccc2F)n1)c1ccsc1I [Compound I-1-94], the “log P neutral” value [3] was 1.92.

With Nc1ncn(-c2c(Br)cccc2Br)n1 [IIa-1 R1=Br R2m=6-Br] the “logP (neutral)” value [6] was 1.2.

With CCc1ccccc1C(=O)Nc1ncn(-c2c(Br)cccc2Br)n1 [Compound I-1-81] the “log P neutral” value [3] was 2.45.

Nc1ncn(-c2c(F)cccc2C(F)(F)F)n1 [1-[2-Fluoro-6-(trifluoromethyl)phenyl]-1H-1,2,4-triazol-3-amine] showed a chromatographic logP [1] of 1.09.

For O=C(Nc1ncn(-c2cccc(Cl)c2Cl)n1)c1ccccc1 [1-9 R1=Cl R2m=3-Cl], the “logP (neutral)” value [2] was 2.11.

With Nc1ncn(-c2cc(Cl)ccc2Cl)n1 [IIa-1 R1=Cl R2m=5% Cl:] the “logP (neutral)” value [6] was 1.44.

With Nc1ncn(-c2c(F)c(F)c(F)c(F)c2F)n1 [IIa-1 R1=F R2m=3,4,5,6-F4] the “logP (neutral)” value [6] was 1.31.

In the case of O=C(Nc1ncn(-c2c(F)cccc2Cl)n1)c1ccccc1 [1-9 R1=Cl R2m=6-F], the “logP (neutral)” value [2] is reported as 1.75.

With O=C(Nc1ncn(-c2ccccc2I)n1)c1ccccc1Cl [Compound I-1-76] the “log P neutral” value [3] was 2.01.

In the case of CCc1ccccc1C(=O)Nc1ncn(-c2ccccc2C(F)(F)F)n1 [Compound I-1-95], the “log P neutral” value [3] is reported as 2.33.

For CCc1ccccc1C(=O)Nc1ncn(-c2c(F)c(F)c(F)c(F)c2F)n1 [Compound I-1-68], the “log P neutral” value [3] was 2.61.

For CCc1ccccc1C(=O)Nc1ncn(-c2ccccc2Br)n1 [Compound I-1-73], the “log P neutral” value [3] was 2.34.

For Cc1cccc(Cl)c1-n1cnc(NC(=O)c2ccccc2)n1 [1-9 R1=Cl R2m=6-CH3], the “logP (neutral)” value [2] was 1.92.

For COc1cccc(C)c1-n1cnc(NC(=O)c2ccccc2C(F)(F)F)n1 [Compound I-1-49], the “log P neutral” value [3] was 2.15.

With O=C(Nc1ncn(-c2ccccc2C(F)(F)F)n1)c1ccccc1Cl [Compound I-1-7] the “log P neutral” value [3] was 2.06.

For Cc1cccc(F)c1-n1cnc(NC(=O)c2ccccc2)n1 [1-9 R1=F R2m=6-CH3], the “logP (neutral)” value [2] was 1.89.

In the case of O=C(Nc1ncn(-c2ccccc2Br)n1)c1ccccc1 [1-9 R1=Br R2m=—], the “logP (neutral)” value [2] is reported as 1.80.

With O=C(Nc1ncn(-c2c(F)ccc(F)c2F)n1)c1ccccc1 [1-9 R1=F R2m=3,6-F2] the “logP (neutral)” value [2] was 1.73.

With O=C(Nc1ncn(-c2ccccc2Cl)n1)c1ccccc1 [1-9 R1=Cl R2m=—] the “logP (neutral)” value [2] was 1.75.

For O=C(Nc1ncn(-c2c(Br)cc(F)cc2Br)n1)c1ccccc1Cl [Compound I-1-88], the “log P neutral” value [3] was 2.26.

In the case of CO/C(=N\C#N)c1ccccc1 [Methyl N-cyanobenzenecarboximidoate], the chromatographic logP [1] is reported as 1.83.

In the case of COc1ccccc1C(=O)Nc1ncn(-c2c(F)cccc2F)n1 [Compound I-1-16], the “log P neutral” value [3] is reported as 1.91.

With CCc1cccc(Cl)c1-n1cnc(NC(=O)c2ccccc2)n1 [1-9 R1=Cl R2m=6-C2H5] the “logP (neutral)” value [2] was 2.2.

In the case of Nc1ncn(-c2cccc(Cl)c2Cl)n1 [IIa-1 R1=Cl R2m=3-Cl], the “logP (neutral)” value [6] is reported as 1.41.
